Values of other authors as cited in article PMC6891756, “Synthesis and Biological Evaluation of Novel Aminochalcones as Potential Anticancer and Antimicrobial Agents” (Molecules, 2019).

Assays:
[1] = system: canine malignant histiocytic cell line (DH82); parameters: method as in PMID 28738308; conditions: read-out: IC50 DH82 proliferation (literature); cited from earlier work
[2] = system: HT-29 cell line; parameters: method as in doi:10.1007/s00044-011-9549-9; conditions: read-out: IC50 HT-29 (literature); cited from earlier work

Row | Structure (SMILES) | IC50 [1] [µM] | IC50 [2] [µM]
1 | Cc1ccc(/C=C/C(=O)c2ccccc2N)cc1 [2′-amino-4-methylchalcone] | 38.2 | –
2 | Nc1ccc(C(=O)/C=C/c2ccccc2Cl)cc1 [4′-amino-2-chlorochalcone] | – | 26.2
3 | Nc1ccc(C(=O)/C=C/c2ccc(Cl)cc2)cc1 [4′-amino-4-chlorochalcone] | 31.4 | –
4 | Nc1ccc(C(=O)/C=C/c2ccc(F)cc2)cc1 [4′-amino-4-fluorochalcone] | 34.4 | –
